We go through four compounds from ChEMBL document CHEMBL4265913, “Role of p53 circuitry in tumorigenesis: A brief review” (Eur J Med Chem, 2018).

Each structure is given as a SMILES string.

One assay relates to SK-N-SH. Briefly: Antiproliferative activity against human SK-N-SH cells after 72 hrs by XTT assay. The class given is functional, cell-based.
The test system of a further assay is IMR-32. Nature of the assay: Antiproliferative activity against human IMR32 cells after 72 hrs by XTT assay. The class given is functional, cell-based. Particulars: IMR-32, 72 h. (In general: Formazan colour is commonly taken as a measure of viable cells.)
In a further assay the test system is SH-SY5Y. Nature of the assay: Antiproliferative activity against human SH-SY5Y cells after 72 hrs by XTT assay. The class given is functional, cell-based.
Assay [1] can be described thus: Antiproliferative activity against human LAN5 cells after 72 hrs by XTT assay. The class given is functional, cell-based. The settings on record: LA-N-5, 72 h.
For the next assay, the system named is IMR-5. Nature of the assay: Antiproliferative activity against human IMR5 cells after 72 hrs by XTT assay. The settings on record: IMR-5, 72 h. The format is functional, cell-based.
A further assay concerns U2OS. Nature of the assay: Antiproliferative activity against human U2OS cells after 72 hrs by MTT assay. The class given is functional, cell-based.
The target of assay [2] is E3 ubiquitin-protein ligase Mdm2 (Homo sapiens, UniProt Q00987). Briefly: Binding affinity to recombinant human MDM2 (1 to 118 residues) expressed in Escherichia coli BL21 (DE3) assessed as reduction in tryptophan fluorescence by microscale thermophoresis method.
Sequence of E3 ubiquitin-protein ligase Mdm2 (Q00987 whole entry, the tested form may be a part): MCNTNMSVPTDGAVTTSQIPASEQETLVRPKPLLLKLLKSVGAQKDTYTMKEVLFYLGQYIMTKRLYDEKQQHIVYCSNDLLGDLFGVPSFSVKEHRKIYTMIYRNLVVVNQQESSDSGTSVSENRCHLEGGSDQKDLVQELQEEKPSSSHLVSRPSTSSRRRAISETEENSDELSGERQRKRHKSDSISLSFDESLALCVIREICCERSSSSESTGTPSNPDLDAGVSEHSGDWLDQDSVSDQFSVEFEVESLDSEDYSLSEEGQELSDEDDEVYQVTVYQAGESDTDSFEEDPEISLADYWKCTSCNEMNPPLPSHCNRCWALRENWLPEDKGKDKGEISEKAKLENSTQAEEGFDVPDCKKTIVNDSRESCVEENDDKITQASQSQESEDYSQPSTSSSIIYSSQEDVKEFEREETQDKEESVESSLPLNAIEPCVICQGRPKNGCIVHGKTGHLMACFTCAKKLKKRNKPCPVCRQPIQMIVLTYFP
For a further assay, the system named is PC-3. Briefly: Growth inhibition of human PC3 cells harboring p53 deletion mutant after 4 days by WST8 assay. The format is functional, cell-based. The settings on record: PC-3, 96 h.

Take `CC1(C)CCC2(CC1)N[C@H](C(=O)N[C@H]1CC[C@H](C(N)=O)OC1)[C@@H](c1ccnc(Cl)c1F)[C@@]21C(=O)Nc2cc(Cl)ccc21`: the IC50 with SK-N-SH worked out at 21.9 nM; in the assay with IMR-32 it was 52.6 nM; with SH-SY5Y it was 17.7 nM; in assay [1], 44.1 nM; in the assay on IMR-5 it was 25.7 nM.

In the assay on U2OS, `Clc1ccc(C2N=C(c3ccccc3)c3cc(Cl)ccc3-n3cnnc32)cc1` (stereo not drawn) came in with an IC50 of 4170 nM.

In the case of `CN1C(=O)C(Cc2ccc(Cl)cc2)=C(c2c[nH]c3cc(Cl)ccc23)[C@]1(O)Cc1ccc(Cl)cc1`, the Kd in assay [2] was found to be 500 nM.

Regarding `CN(C)C(=O)[C@@H]1N[C@H](CC(C)(C)C)[C@]2(C(=O)Nc3cc(Cl)ccc32)[C@H]1c1cccc(Cl)c1`, the IC50 with PC-3 amounted to 22500 nM.

What is called IC50 is the concentration needed to halve the response being measured. A higher IC50 goes with weaker potency. Broadly, the Kd is a measure of binding affinity in units of concentration.
